{"source": "patent US20240299496A1", "about": "“DRUG FOR TREATING FATTY LIVER AND NONALCOHOLIC STEATOHEPATITIS” (Osaka University, priority 2021, published 2024)", "tested_on": "NASH model mice (MC4R-KO mice fed a high-fat diet)", "assay": "Body weight and liver weight of NASH model mice", "format": "in vivo, mouse", "conditions": "5 mg/kg tail vein injection twice a week for four weeks, t-test", "description": "Melanocortin-4 receptor knockout mice (hereinafter also referred to as “MC4R-KO mice,” genetic background: C57BL/6J) were provided by Dr. Joel K Elmquist of University of Texas, Medical Center.\nSubsequently, NASH was induced in the mice by feeding a high-fat diet to the MC4R-KO mice, as detailed in the below reference. […] Later, the diet was switched from the normal diet to a high-fat diet (HFD) and the high-fat diet was fed for 20 weeks. Thereby, NASH was developed in the mice. • Itoh M, Suganami T, Nakagawa N, et al. Melanocortin 4 receptor-deficient mice as a novel mouse model of nonalcoholic steatohepatitis. Am J Pathol 2011; 179: 2454-63.\nHere, CE-2 (manufactured by CLEA Japan, Inc.) was used as the normal diet, and Western Diet (manufactured by EPS EKISHIN Co., Ltd., containing 0.21% of cholesterol+41% kcal of milk fat) was used as the high-fat diet.\nExperiments were carried out by dividing the mice into two groups of an HMGB1 peptide administration group (HMGB1 administration group) and a control group (normal saline; NS administration; CTRL administration group). […]\nThe mice were euthanized twenty weeks after initiating the high-fat diet, and arterial blood was collected from the heart of the mice. […] In all of the following statistical analyses, significance was calculated by a t-test.", "note": "Where no end group is shown, it is not given here."}
{"sequence": "MGKGDPKKPRGKMSSYAFFVQTCREEHKKKHPDASVNFSEFSKK [HMGB1 peptide]", "values": [{"measurement": "change of the body weight", "setting": "from initiating administration until completion of breeding, vs control group", "value": "significant differences were not observed"}, {"measurement": "body weight", "setting": "twenty weeks after initiating high-fat diet, vs control group (normal saline)", "value": "significant differences were not observed"}]}
